According to US8524691B2, “Phosphonated rifamycins and uses thereof for the prevention and treatment of bone and joint infections” (The Medicines Company, priority 2008, dated 2013):
In brackets after ≈: the same amount, converted by molar mass. Where two headings read alike, the source gives them in different places.

Tests used:
S. aureus ATCC 13709 [1] = assay: microbe, parasite or virus in culture; format: cell-based; details: for Minimum inhibitory concentration, S. aureus ATCC 13709: CAMHB, 37° C., 18 h; for Antibacterial activity (in words, from Table 1): S. aureus MIC
Method: (§1) Susceptibility of S. aureus strains to the known antibiotics and synthesized compounds was determined by following the guidelines set by NCCLS (M26-A). Compounds were diluted two-fold serially in DMSO and transferred to cation-adjusted Mueller Hinton broth (CAMHB; Becton Dickinson). 50 μL of compounds diluted in CAMHB was mixed with 100 μL of bacteria diluted in CAMHB in 96-well microtiter plates. The final concentration of micro-organisms in the assay was 5×10^5c.f.u. per mL and the final concentration of DMSO in the assay was 1.25%. Assays were set up in duplicate and incubated at 37° C. for 18 h. The lowest concentration of compound that inhibited visible growth was reported as the minimum inhibitory concentration (MIC).

[2] = tested on: S. aureus ATCC 13709^A, Novobiocin and Rifampicin resistant variant; assay: Antibacterial susceptibility (MIC), NCCLS broth microdilution; format: cell-based
Method: as §1

S. aureus ATCC 29213 = assay: as above; format: cell-based; details: CAMHB, 37° C., 18 h
Method: as §1

S. aureus ATCC 13709 [3] = assay: microbe, parasite or virus in culture; format: cell-based; details: for Serum dependence of antibacterial activity (in words): MIC with versus without serum
Method: as §1
Susceptibility testing experiments were also carried out in the presence of serum. These experiments were carried out similar to the susceptibility testing with the following modifications. 75 μL of compounds diluted in CAMHB was mixed with 75 μL of bacteria diluted in 100% serum from any given source (commercial pooled mouse serum (MS) and human serum (HS), Equitech-Bio Inc.) or diluted in 8% purified human serum albumin (HSA) (Calbiochem). The final concentration of animal serum in the assay was 50% and the final concentration of purified human serum albumin in the assay was 4%; the concentrations of all other components were identical to those described for susceptibility testing.

[4] = format: in vitro ADME; details: for % Conversion (prodrug converted to parent drug after binding to bone): 24 h incubation, 37° C.
Method: Amounts of parent drug “regenerated” from the phosphonated prodrug were measured as follows. Washed bone powder-bound prodrugs from the above experiment were resuspended in 400 μL PBS+2% DMSO or in 400 μL 50% (v/v in PBS+2% DMSO) human or rat serum. The suspension was incubated overnight at 37° C., centrifuged at 13,000 rpm for 2 min and the supernatant was recovered. The amount of regenerated parent drug in the supernatant was determined by measurements using the microbiological assay that was previously described for the prodrugs themselves. The amount of prodrug was deduced from standard curves of known amounts of parent drug that were used as reference for each experiment. The amount of regenerated drug assessed by this bioassay was corroborated by MIC determination. The percentage of drug regenerated in PBS or serum after the overnight incubation (Table 2) was deduced from the difference between the amount of bound prodrug and the amount of regenerated drug (not shown).

Row | SMILES | Minimum inhibitory concentration, S. aureus ATCC 13709 (S. aureus ATCC 13709 [1]) [µg/mL] | Minimum inhibitory concentration, S. aureus ATCC 13709^A [2] [µg/mL] | Minimum inhibitory concentration, S. aureus ATCC 29213 (S. aureus ATCC 29213) [µg/mL] | Minimum inhibitory concentration, ATCC 13709 + 50% Human Serum (S. aureus ATCC 13709 [3]) [µg/mL] | Minimum inhibitory concentration, ATCC 13709 + 50% Mouse Serum (S. aureus ATCC 13709 [3]) [µg/mL] | Minimum inhibitory concentration, ATCC 13709 + 50% Rat Serum (S. aureus ATCC 13709 [3]) [µg/mL] | Serum dependence of antibacterial activity (in words) (S. aureus ATCC 13709 [3]) | Antibacterial activity (in words, from Table 1) (S. aureus ATCC 13709 [1]) | Release of parent rifabutin from bone powder-bound prodrug (in words) [4] | % Conversion (prodrug converted to parent drug after binding to bone) ([4]; 50% Heat Inactivated Rat Serum) [%] | % Conversion (prodrug converted to parent drug after binding to bone) ([4]; 50% Rat Serum) [%] | % Conversion (prodrug converted to parent drug after binding to bone) ([4]; PBS) [%]
1 | CCN(CC)CC.CO[C@H]1/C=C/O[C@@]2(C)Oc3c(C)c(O)c4c(c3C2=O)C2=NC3(CCN(CC(C)C)CC3)NC2=C(NC(=O)/C(C)=C\C=C\[C@H](C)[C@H](OC(=O)CNC(=O)Nc2ccc(CC(P(=O)(O)O)P(=O)(O)O)cc2)[C@@H](C)[C@@H](O)[C@@H](C)[C@H](OC(C)=O)[C@@H]1C)C4=O [Compound 142a] | 16 | >128 | 16 | 128 | 16 | 2 | weak antibacterial activity does not show a serum dependence | – | – | – | – | –
2 | CCN(CC)CC.CO[C@H]1/C=C/O[C@@]2(C)Oc3c(C)c(O)c4c(c3C2=O)C2=NC3(CCN(CC(C)C)CC3)NC2=C(NC(=O)/C(C)=C\C=C\[C@H](C)[C@H](OC(=O)CN(C)CC(=O)NC(P(=O)(O)O)P(=O)(O)O)[C@@H](C)[C@@H](O)[C@@H](C)[C@H](OC(C)=O)[C@@H]1C)C4=O [Compound 147] | 128 | >128 | 128 | 16 | 2 | 32 | – | near complete loss of activity | – | – | – | –
3 | CO[C@H]1/C=C/O[C@@]2(C)Oc3c(C)c(O)c4c(c3C2=O)C2=NC3(CCN(CC(C)C)CC3)N(C(=O)Oc3ccc(NC(=O)CCC(P(=O)(O)O)P(=O)(O)O)cc3)C2=C(NC(=O)/C(C)=C\C=C\[C@H](C)[C@H](O)[C@@H](C)[C@@H](O)[C@@H](C)[C@H](OC(C)=O)[C@@H]1C)C4=O [Compound 28] | 0.5 (≈ 0.412 µM) | >128 | 0.5 (≈ 0.412 µM) | 0.25 | 2 | 0.0625 | – | very low MICs whether in the absence or in the presence of serum | release significant amounts of the parent rifabutin once bound to bone powder, regardless of the presence of serum | 0.07 ± 0.02 | 0.06 ± 0.01 | 0.06 ± 0.01
4 | CO[C@H]1/C=C/O[C@@]2(C)Oc3c(C)c(O)c4c(c3C2=O)C2=NC3(CCN(CC(C)C)CC3)NC2=C(NC(=O)/C(C)=C\C=C\[C@H](C)[C@H](OC(=O)CN(C)CCOC(=O)CCC(P(=O)(O)O)P(=O)(O)O)[C@@H](C)[C@@H](O)[C@@H](C)[C@H](OC(C)=O)[C@@H]1C)C4=O [Compound 36] | 2 (≈ 1.68 µM) | >128 | 2 (≈ 1.68 µM) | 2 | 1 | 0.0625 | significant increase in antibacterial activity in serum | – | release significant amounts of the parent rifabutin once bound to bone powder, regardless of the presence of serum | 0.07 | 0.07 | 0.07
